According to patent publication US20170190671A1, “BIS(ARYL)CATECHOL DERIVATIVES AS HERBICIDES” (E I DU PONT DE NEMOURS AND COMPANY, priority 2014, published 2017):

Columns and labels:
Type in all cases: in vivo
[1] = test system: barnyardgrass (Echinochloa crus-galli); test: Test B flooded paddy; settings: Echinochloa crus-galli, 336 h; 250 g ai/ha, Flood, 13 to 15 days, scale 0 (no effect) to 100 (complete control); read-out: Plant response rating, Barnyardgrass
Method in brief: (§1)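 In-water treatment: compound dosed into 3 cm flood over soil, water level unchanged throughout. Controls run alongside; visual assessment at day 13–15.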

[2] = test system: sedge, umbrella (small-flower umbrella sedge, Cyperus difformis); test: Test B flooded paddy; settings: Cyperus difformis, 336 h; 250 g ai/ha, Flood, 13 to 15 days, scale 0 (no effect) to 100 (complete control); read-out: Plant response rating, Sedge, Umbrella
Method in brief: as §1

[3] = test system: ducksalad (Heteranthera limosa); test: Test B flooded paddy; settings: Heteranthera limosa, 336 h; 250 g ai/ha, Flood, 13 to 15 days, scale 0 (no effect) to 100 (complete control); read-out: Plant response rating, Ducksalad
Method in brief: as §1

rice (Oryza sativa) = test: Test B flooded paddy; settings: Oryza sativa, 336 h; 250 g ai/ha, Flood, 13 to 15 days, scale 0 (no effect) to 100 (complete control); read-out: Plant response rating, Rice
Method in brief: as §1

[4] = test system: giant foxtail (Setaria faberii); test: Test A postemergence; settings: Setaria faberi, post-emergence, 240 h, 0 to 100 scale, read-out: Plant response rating, Foxtail, Giant; for pest or weed control at 31 g/ha: 31 g ai/ha; for pest or weed control at 125 g/ha: 125 g ai/ha
Method in brief: (§2)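 Visual injury scored 0–100 (100 = complete control) against untreated controls about 10 days after treatment in a greenhouse. Test chemicals, formulated with surfactant in non-phytotoxic solvent, were sprayed on soil preemergence or on 2-10 cm, one- to two-leaf plants postemergence.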

[5] = test system: pigweed (Amaranthus retroflexus); test: Test A postemergence; settings: Amaranthus retroflexus, post-emergence, 240 h, 0 to 100 scale, read-out: Plant response rating, Pigweed; for pest or weed control at 31 g/ha: 31 g ai/ha; for pest or weed control at 125 g/ha: 125 g ai/ha
Method in brief: as §2

kochia (Kochia scoparia) [6] = test: Test A postemergence; settings: Bassia scoparia, post-emergence, 240 h, 0 to 100 scale, read-out: Plant response rating, Kochia; for pest or weed control at 31 g/ha: 31 g ai/ha; for pest or weed control at 125 g/ha: 125 g ai/ha
Method in brief: as §2

[7] = test system: ragweed (common ragweed, Ambrosia elatior); test: Test A postemergence; settings: Ambrosia artemisiifolia, post-emergence, 240 h, 0 to 100 scale, read-out: Plant response rating, Ragweed; for pest or weed control at 31 g/ha: 31 g ai/ha; for pest or weed control at 125 g/ha: 125 g ai/ha
Method in brief: as §2

[8] = test system: wheat (Triticum aestivum); test: Test A postemergence; settings: Triticum aestivum, post-emergence, 240 h, 0 to 100 scale, read-out: Plant response rating, Wheat; for plant injury at 31 g/ha: 31 g ai/ha; for plant injury at 125 g/ha: 125 g ai/ha
Method in brief: as §2

[9] = test system: barnyardgrass (Echinochloa crus-galli); test: Test A postemergence; settings: Echinochloa crus-galli, post-emergence, 240 h, 0 to 100 scale, read-out: Plant response rating, Barnyardgrass; for pest or weed control at 31 g/ha: 31 g ai/ha; for pest or weed control at 125 g/ha: 125 g ai/ha
Method in brief: as §2

[10] = test system: Italian ryegrass (Lolium multiflorum); test: Test A postemergence; settings: Lolium multiflorum, post-emergence, 240 h, 0 to 100 scale, read-out: Plant response rating, Ryegrass, Italian; for pest or weed control at 31 g/ha: 31 g ai/ha; for pest or weed control at 125 g/ha: 125 g ai/ha
Method in brief: as §2

corn (Zea mays) = test: Test A postemergence; settings: Zea mays, post-emergence, 240 h, 0 to 100 scale; for Corn plant response rating (crop injury, 0 = no effect, 100 = complete kill) at 31 g/ha: 31 g ai/ha; for Corn plant response rating (crop injury, 0 = no effect, 100 = complete kill) at 125 g/ha: 125 g ai/ha
Method in brief: as §2

[11] = test system: blackgrass (Alopecurus myosuroides); test: Test A postemergence; settings: Alopecurus myosuroides, post-emergence, 240 h, 0 to 100 scale, read-out: Plant response rating, Blackgrass; for pest or weed control at 31 g/ha: 31 g ai/ha; for pest or weed control at 125 g/ha: 125 g ai/ha
Method in brief: as §2

[12] = test system: galium (catchweed bedstraw, Galium aparine); test: Test A postemergence; settings: Galium, post-emergence, 240 h, 0 to 100 scale, read-out: Plant response rating, Galium; for pest or weed control at 31 g/ha: 31 g ai/ha; for pest or weed control at 125 g/ha: 125 g ai/ha
Method in brief: as §2

[13] = test system: giant foxtail (Setaria faberii); test: Test A preemergence; settings: Setaria faberi, pre-emergence, 240 h, 0 to 100 scale (0 no effect, 100 complete control), read-out: Foxtail, Giant plant response rating; for pest or weed control at 31 g/ha: 31 g ai/ha; for pest or weed control at 125 g/ha: 125 g ai/ha
Method in brief: as §2

[14] = test system: pigweed (Amaranthus retroflexus); test: Test A preemergence; settings: Amaranthus retroflexus, pre-emergence, 240 h, 0 to 100 scale (0 no effect, 100 complete control), read-out: Pigweed plant response rating; for pest or weed control at 31 g/ha: 31 g ai/ha; for pest or weed control at 125 g/ha: 125 g ai/ha
Method in brief: as §2

kochia (Kochia scoparia) [15] = test: Test A preemergence; settings: Bassia scoparia, pre-emergence, 240 h, 0 to 100 scale (0 no effect, 100 complete control), read-out: Kochia plant response rating; for pest or weed control at 31 g/ha: 31 g ai/ha; for pest or weed control at 125 g/ha: 125 g ai/ha
Method in brief: as §2

[16] = test system: ragweed (common ragweed, Ambrosia elatior); test: Test A preemergence; settings: Ambrosia artemisiifolia, pre-emergence, 240 h, 0 to 100 scale (0 no effect, 100 complete control), read-out: Ragweed plant response rating; for pest or weed control at 31 g/ha: 31 g ai/ha; for pest or weed control at 125 g/ha: 125 g ai/ha
Method in brief: as §2

[17] = test system: barnyardgrass (Echinochloa crus-galli); test: Test A preemergence; settings: Echinochloa crus-galli, pre-emergence, 240 h, 0 to 100 scale (0 no effect, 100 complete control), read-out: Barnyardgrass plant response rating; for pest or weed control at 31 g/ha: 31 g ai/ha; for pest or weed control at 125 g/ha: 125 g ai/ha
Method in brief: as §2

[18] = test system: Italian ryegrass (Lolium multiflorum); test: Test A preemergence; settings: Lolium multiflorum, pre-emergence, 240 h, 0 to 100 scale (0 no effect, 100 complete control), read-out: Ryegrass, Italian plant response rating; for pest or weed control at 31 g/ha: 31 g ai/ha; for pest or weed control at 125 g/ha: 125 g ai/ha
Method in brief: as §2

Row | SMILES | pest or weed control at 250 g/ha [1] [%] | pest or weed control at 250 g/ha [2] [%] | pest or weed control at 250 g/ha [3] [%] | plant injury at 250 g/ha (rice (Oryza sativa)) [%] | pest or weed control at 31 g/ha [4] [%] | pest or weed control at 125 g/ha [4] [%] | pest or weed control at 31 g/ha [5] [%] | pest or weed control at 125 g/ha [5] [%] | pest or weed control at 31 g/ha (kochia (Kochia scoparia) [6]) [%] | pest or weed control at 125 g/ha (kochia (Kochia scoparia) [6]) [%] | pest or weed control at 31 g/ha [7] [%] | pest or weed control at 125 g/ha [7] [%] | plant injury at 31 g/ha [8] [%] | plant injury at 125 g/ha [8] [%] | pest or weed control at 31 g/ha [9] [%] | pest or weed control at 125 g/ha [9] [%] | pest or weed control at 31 g/ha [10] [%] | pest or weed control at 125 g/ha [10] [%] | Corn plant response rating (crop injury, 0 = no effect, 100 = complete kill) at 31 g/ha (corn (Zea mays)) [%] | Corn plant response rating (crop injury, 0 = no effect, 100 = complete kill) at 125 g/ha (corn (Zea mays)) [%] | also measured
1 | N#Cc1cccc(Oc2ncc(Cl)cn2)c1Oc1cccc(Cl)c1 [Compound 37] | 0 | 0 | 0 | 0 | 0 | 0 | 0 | 0 | 0 | 0 | 0 | 0 | 0 | 0 | 0 | 0 | 0 | 0 | 0 | 0 | pest or weed control at 31 g/ha [11]: 0%; pest or weed control at 125 g/ha [11]: 0%; pest or weed control at 31 g/ha [12]: 0%; pest or weed control at 125 g/ha [12]: 0%; pest or weed control at 31 g/ha [13]: 0%; pest or weed control at 125 g/ha [13]: 0%; pest or weed control at 31 g/ha [14]: 0%; pest or weed control at 125 g/ha [14]: 0%; pest or weed control at 31 g/ha (kochia (Kochia scoparia) [15]): 0%; pest or weed control at 125 g/ha (kochia (Kochia scoparia) [15]): 0%; pest or weed control at 31 g/ha [16]: 0%; pest or weed control at 125 g/ha [16]: 0%; pest or weed control at 31 g/ha [17]: 0%; pest or weed control at 125 g/ha [17]: 0%; pest or weed control at 31 g/ha [18]: 0%; pest or weed control at 125 g/ha [18]: 0%
2 | N#Cc1cccc(Oc2ncc(Cl)cn2)c1Oc1ccccc1Cl [Compound 40] | 0 | 0 | 0 | 0 | 0 | 0 | 0 | 30 | 0 | 0 | 0 | 0 | 0 | 0 | 0 | 0 | 0 | 0 | 0 | 0 | pest or weed control at 31 g/ha [11]: 0%; pest or weed control at 125 g/ha [11]: 0%; pest or weed control at 31 g/ha [12]: 0%; pest or weed control at 125 g/ha [12]: 10%; pest or weed control at 31 g/ha [13]: 0%; pest or weed control at 125 g/ha [13]: 0%; pest or weed control at 31 g/ha [14]: 0%; pest or weed control at 125 g/ha [14]: 0%; pest or weed control at 31 g/ha (kochia (Kochia scoparia) [15]): 0%; pest or weed control at 125 g/ha (kochia (Kochia scoparia) [15]): 0%; pest or weed control at 31 g/ha [16]: 0%; pest or weed control at 125 g/ha [16]: 0%; pest or weed control at 31 g/ha [17]: 0%; pest or weed control at 125 g/ha [17]: 0%; pest or weed control at 31 g/ha [18]: 0%; pest or weed control at 125 g/ha [18]: 0%
